# Earlier results, collected in patent US20110020252A1, “METHOD OF LONG LASTING HUMAN SKIN TANNING” (priority 2010, published 2011).
# System: gram-positive cocci (including methicillin-resistant Staphylococcus aureus-MSRA), some gram-negative organisms, Legionella, many mycobacterium and some fungi
# Details: cited from earlier work
smiles,measurement,value
CO[C@H]1/C=C/O[C@@]2(C)Oc3c(C)c(O)c4c(O)c(c(/C=N/N5CCN(C)CC5)c(O)c4c3C2=O)NC(=O)/C(C)=C\C=C\[C@H](C)[C@H](O)[C@@H](C)[C@@H](O)[C@@H](C)[C@H](OC(C)=O)[C@@H]1C [Rifampin],antimicrobial activity,good activity
